Eleven molecules from US20250368633A1, “AZEPINE FUSED RING COMPOUND AS RIPK1 INHIBITOR AND USE THEREOF” (ARTIVILA BIOPHARMA, priority 2022, published 2025) can be followed below.

What is called EC50 is the midpoint of the concentration-response curve.

The subject of assay [1] is U937 cells. The experiment in a line: Inhibition rate of compound (1 μM) on necroptosis of U937 cells (TSZ-induced, CellTiter-Glo). The format is cell-based. The settings on record: TSZ (hTNF-α, SM-164, Z-VAD-FMK) 20 hours. On the procedure:
(§1) The biological activity of RIPK1 inhibitors was further evaluated in the inhibition of necroptosis in U937 cells. U937 cell line was purchased from Huatuo Biotechnology and stored in liquid nitrogen. U937 cells were revived before the experiment and cultured in RPMI-1640 medium (supplemented with 10% fetal bovine serum, 100 U/mL penicillin and 100 μg/mL streptomycin) at 37° C., 5% CO2. The activity was further evaluated by the cellular ATP level detected by the Promega CellTiter-Glo 2.0 Assay cell viability assay kit (Catalog No.: G9242).
The experimental method was briefly described as below. U937 cells in the logarithmic growth phase were collected by centrifugation. Cells were diluted at the density of 5×10^5 cells/mL with RPMI 1640 medium (supplemented with 10% fetal bovine serum, 100 U/mL penicillin and 100 μg/mL streptomycin). The cell suspension was added to a white sterile 384-well cell culture plate at 15 μL/well. The test compound was dissolved in DMSO to prepare a 10 mM stock solution and diluted to 10 μM with culture medium. At the same time, a control with the same DMSO volume was set up. Two replicates were added for each concentration. The diluted compound was added to the 384-well cell culture plate containing cells at 2.5 µL/well and incubated at 37° C., 5% CO2 for 15 minutes. Z-VAD-FMK (Biyuntian, catalog number: C1202-5 mg) was dissolved in DMSO to prepare a 20 mM stock solution. SM-164 (Biyuntian, catalog number: SC0114-10 mM) was dissolved in DMSO to prepare a 10 mM stock solution and diluted to 0.1 mM. hTNF-α (Sino Biological Inc., catalog number: 10602-HNAE) was dissolved in sterile water to 10 μg/mL. RPMI 1640 medium (supplemented with 10% fetal bovine serum, 100 U/mL penicillin and 100 μg/mL streptomycin) was used to prepare the TSZ mixture, containing 133.3 μM Z-VAD-FMK, 33.3 ng/ml hTNF-α and 0.3 μM SM-164. After 15 minutes' coculture of compounds and cells, 7.5 μL of TSZ mixture was added to each well, mixed evenly, and cultured at 37° C., 5% CO2 for 20 hours. After 20 hours, the culture plate was removed and placed at room temperature for 30 minutes. 10 μL of CellTiter-Glo reagent pre-equilibrated at room temperature was added to each well and incubated for 10 minutes from light. The chemiluminescence was read by a microplate reader. The inhibition rate was calculated as Inh %=(1−(no TSZ-TSZ & compound)/(no TSZ-TSZ))×100.
In general terms: Cellular ATP, detected with luciferase, serves as a proxy for viable cell number.

In assay [2] the test system is U937 cells. The assay is described as follows: EC50 of necroptosis inhibition in U937 cells (TSZ-induced, CellTiter-Glo). The format is cell-based. The settings on record: Homo sapiens, U-937; TSZ (hTNF-α, SM-164, Z-VAD-FMK) 20 hours; 10 concentration points; read-out: EC50 intervals of necroptosis inhibition in U937 cells. As to the method:
as §1
The experimental method was briefly described as below. U937 cells in the logarithmic growth phase were collected by centrifugation. Cells were diluted to the cell density of 5×10^5 cells/mL with RPMI 1640 medium (supplemented with 10% fetal bovine serum, 100 U/mL penicillin and 100 μg/mL streptomycin). Cell suspension was added to a white sterile 384-well cell culture plate at 15 μL/well. The test compound was dissolved in DMSO to prepare a 10 mM stock solution. The compound was serially diluted with culture medium at a ratio of 1:3, for a total of 10 concentration points. A control with the same DMSO volume was set, with two replicates for each concentration. The diluted compound was added to the 384-well cell culture plate containing cells at 2.5 μL/well and incubated at 37° C., 5% CO2 for 15 minutes. Z-VAD-FMK (Biyuntian, catalog number: C1202-5 mg) was dissolved in DMSO to prepare a 20 mM stock solution. SM-164 (Biyuntian, catalog number: SC0114-10 mM) was dissolved in DMSO to prepare a 10 mM stock solution and diluted to 0.1 mM. hTNF-α (Sino Biological Inc., catalog number: 10602-HNAE) was dissolved in sterile water to 10 μg/mL. RPMI 1640 medium (supplemented with 10% fetal bovine serum, 100 U/mL penicillin and 100 μg/mL streptomycin) was used to prepare the TSZ mixture, containing 133.3 μM Z-VAD-FMK, 33.3 ng/ml hTNF-α and 0.3 μM SM-164. After 15 minutes' coculture of compounds and cells, 7.5 μL of TSZ mixture was added to each well, mixed evenly, and cultured at 37° C., 5% CO2 for 20 hours. After 20 hours, the culture plate was removed and placed at room temperature for 30 minutes. Then, 10 μL of CellTiter-Glo reagent pre-equilibrated at room temperature was added to each well and incubated. After 10 minutes' incubation at room temperature in the dark, the chemiluminescence were measured using a microplate reader. The inhibition rate was calculated as Inh %=(1−(no TSZ-TSZ & compound)/(no TSZ-TSZ))×100. The EC50 was obtained by fitting the nonlinear regression curve log [inhibitor] vs. response−variable slope (four parameters) in GraphPad Prism.

Each structure is given as a SMILES string. Some results are limits rather than exact numbers.

For the molecule `CN1C(=O)[C@@H](NC(=O)C(=O)NCCc2ccccc2)COc2cc(C#CC3CC3)ccc21` [Example 4, (S)—N^1-(8-(cyclopropylethynyl)-5-methyl-4-oxo-2,3,4,5-tetrahydrobenzo[b][1,4]oxazepin-3-yl)-N^2-phenethyloxalamide], the “Inhibition rate range of compounds (1 μM) on U937 cell necroptosis” value (shortened to “Inhibition rate range of compounds”) in assay [1] is reported as “B (B: 50-89%)”. For the same molecule, the concentration giving a half-maximal response (EC50) in assay [2] lay in the range of 500 to 2000 nM.

For `CN1C(=O)C(NC(=O)C(=O)NCCc2ccccc2)CCc2cc(C#CC3CC3)ccc21` (stereo not shown) [Example 64, N^1-(7-(cyclopropylethynyl)-1-methyl-2-oxo-2,3,4,5-tetrahydro-1H-benzo[b]azepin-3-yl)-N^2-phenethyloxalamide], in assay [1], the “Inhibition rate range of compounds” value is listed as “B (B: 50-89%)”. The EC50 in assay [2] lay within 500 to 2000 nM.

Regarding `CN1C(=O)C(NC(=O)C(=O)NCCc2ccccc2)CCc2ccccc21` (stereo not shown) [Example 67, N^1-(1-methyl-2-oxo-2,3,4,5-tetrahydro-1H-benzo[b]azepin-3-yl)-N^2-phenethyloxalamide], the “Inhibition rate range of compounds” value in assay [1] is reported as “A (A: ≥90%)”. The EC50 in assay [2] was 100 to 500 nM.

As to `CN1C(=O)[C@@H](NC(=O)C(=O)NCCc2ccccc2)COc2ccc(C#CC3CNC3)cc21` [Example 90, (S)—N^1-(7-(azetidin-3-ylethynyl)-5-methyl-4-oxo-2,3,4,5-tetrahydrobenzo[b][1,4]oxazepin-3-yl)-N^2-phenethyloxalamide], the “Inhibition rate range of compounds” value in assay [1] is reported as “B (B: 50-89%)”. Besides, the 50% effective concentration (EC50) in assay [2] was in the range of 100 to 500 nM.

Consider `CN1C(=O)[C@@H](NC(=O)C(=O)NCCc2cccc(F)c2)COc2ccc(C#CC3(O)CCCCC3)cc21` [Example 112, (S)—N^1-(3-fluorophenethyl)-N^2-(7-((1-hydroxycyclohexyl)ethynyl)-5-methyl-4-oxo-2,3,4,5-tetrahydrobenzo[b][1,4]oxazepin-3-yl)oxalamide], for which the “Inhibition rate range of compounds” value in assay [1] is listed as “A (A: ≥90%)”. In addition, the EC50 in assay [2] is less than 100 nM.

Consider `C[C@H](NC(=O)C(=O)N[C@H]1COc2ccc(C#CCN3CC[C@@H](O)C3)cc2N(C)C1=O)c1ccccc1` [Example 127, N^1-((S)-7-(3-((R)-3-hydroxypyrrolidin-1-yl)prop-1-yn-1-yl)-5-methyl-4-oxo-2,3,4,5-tetrahydrobenzo[b][1,4]oxazepin-3-yl)-N^2-((S)-1-phenylethyl)oxalamide], for which the “Inhibition rate range of compounds” value in assay [1] is given as “B (B: 50-89%)”. Besides, the EC50 in assay [2] was 100 to 500 nM.

As for `C[C@H](NC(=O)C(=O)N[C@H]1COc2ccc(C#CCN3CC[C@H](O)C3)cc2N(C)C1=O)c1ccccc1` [Example 129, N^1-((S)-7-(3-((S)-3-hydroxypyrrolidin-1-yl)prop-1-yn-1-yl)-5-methyl-4-oxo-2,3,4,5-tetrahydrobenzo[b][1,4]oxazepin-3-yl)-N^2-((S)-1-phenylethyl)oxalamide], the “Inhibition rate range of compounds” value in assay [1] was “B (B: 50-89%)”. For the same molecule, the EC50 in assay [2] was in the range of 100 to 500 nM.

For `C[C@H](NC(=O)C(=O)N[C@H]1COc2ccc(C#CC3(O)COC3)cc2N(C)C1=O)c1ccccc1` [Example 133, N^1-((S)-7-((3-hydroxyoxetan-3-yl)ethynyl)-5-methyl-4-oxo-2,3,4,5-tetrahydrobenzo[b][1,4]oxazepin-3-yl)-N^2-((S)-1-phenylethyl)oxalamide], the “Inhibition rate range of compounds” value in assay [1] is “B (B: 50-89%)”. In addition, the EC50 in assay [2] was 100 to 500 nM.

`C[C@H](NC(=O)C(=O)N[C@H]1COc2ccc(C#CCN3CCOCC3)cc2N(C)C1=O)c1ccccc1` [Example 141, N^1-((S)-5-methyl-7-(3-morpholinoprop-1-yn-1-yl)-4-oxo-2,3,4,5-tetrahydrobenzo[b][1,4]oxazepin-3-yl)-N^2-((S)-1-phenylethyl)oxalamide]: the “Inhibition rate range of compounds” value in assay [1] is “A (A: ≥90%)”. Further, the EC50 in assay [2] is less than 100 nM.

`C[C@@H](NC(=O)C(=O)N[C@H]1COc2ccc(C#CC3CN(CCO)C3)cc2N(C)C1=O)c1ccccc1` [Example 150, N^1-((S)-7-((1-(2-hydroxyethyl)azetidin-3-yl)ethynyl)-5-methyl-4-oxo-2,3,4,5-tetrahydrobenzo[b][1,4]oxazepin-3-yl)-N^2-((R)-1-phenylethyl)oxalamide]: the “Inhibition rate range of compounds” value in assay [1] was “A (A: ≥90%)”. Further, the EC50 in assay [2] is less than 100 nM.

`C[C@@H](NC(=O)C(=O)N[C@H]1CNc2ccc(C#CCN3CCOCC3)cc2N(C)C1=O)c1ccccc1` [Example 165, N^1-((S)-1-methyl-8-(3-morpholinoprop-1-yn-1-yl)-2-oxo-2,3,4,5-tetrahydro-1H-benzo[b][1,4]diazepin-3-yl)-N^2-((R)-1-phenylethyl)oxalamide]: in assay [1], the “Inhibition rate range of compounds” value is “A (A: ≥90%)”. For the same molecule, the half-maximal effective concentration (EC50) in assay [2] is less than 100 nM.
